Laboratory results published in patent publication US20110275703A1, “SUBSTITUTED SPIROKETAL DERIVATIVES AND USE THEREOF AS THERAPEUTIC DRUG FOR DIABETES” (CHUGAI SEIYAKU KABUSHIKI KAISHA, priority 2007, published 2011).

Molecular target: T1, human SGLT1 (Homo sapiens, UniProt P13866)
T1 construct: expressed in transfected cells; host or cells: CHO-K1
T1 sequence (P13866 1-664): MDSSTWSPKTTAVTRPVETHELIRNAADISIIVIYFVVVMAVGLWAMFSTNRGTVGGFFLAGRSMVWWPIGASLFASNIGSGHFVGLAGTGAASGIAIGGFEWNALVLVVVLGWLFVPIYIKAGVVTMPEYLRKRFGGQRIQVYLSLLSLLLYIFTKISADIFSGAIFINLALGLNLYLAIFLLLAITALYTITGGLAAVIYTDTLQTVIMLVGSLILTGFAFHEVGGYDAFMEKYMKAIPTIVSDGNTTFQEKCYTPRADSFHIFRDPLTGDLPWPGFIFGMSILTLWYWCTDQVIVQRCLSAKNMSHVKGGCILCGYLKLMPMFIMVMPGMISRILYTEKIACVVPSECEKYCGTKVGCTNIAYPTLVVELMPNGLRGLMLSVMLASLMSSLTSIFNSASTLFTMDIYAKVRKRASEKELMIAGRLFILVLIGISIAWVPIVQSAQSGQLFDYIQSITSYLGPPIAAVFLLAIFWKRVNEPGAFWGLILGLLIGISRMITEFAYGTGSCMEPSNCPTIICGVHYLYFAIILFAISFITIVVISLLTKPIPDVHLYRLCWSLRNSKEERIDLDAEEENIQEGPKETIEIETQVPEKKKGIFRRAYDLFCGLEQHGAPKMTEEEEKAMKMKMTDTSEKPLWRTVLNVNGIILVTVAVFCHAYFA
Experiment: Inhibitory activity against methyl-α-D-glucopyranoside uptake, CHO cells stably expressing human SGLT1
Assay type: cell-based
Settings: Table 2-2; read-out: hSGLT1 IC50 value
Text: Evaluation of inhibitory activity against methyl-α-D-glucopyranoside uptake of human Na^+-glucose cotransporter (SGLT1 and SGLT2)
1) Construction of Human SGLT1 Expression Vector
Human SGLT1 cDNA was amplified by PCR with a cDNA library derived from human small intestine (Clontech) as a template, synthetic DNA primers and KOD+ DNA Polymerase (Toyobo Co., Ltd., Japan). The amplified cDNA was inserted into pcRII-Topo vector by using a Topo TA Cloning Dual Promoter kit (Invitrogen). E. coli competent cells (Invitrogen, TOP10) were transformed with the plasmid vector, cultured in LB medium containing ampicillin (50 mg/L) to grow ampicillin-resistant clones. The plasmid vector containing human SGLT1 cDNA was purified from the clone in a standard manner (see Maniatis et al., Molecular Cloning). Human SGLT1 cDNA added restriction enzyme recognition sites (Eco RI at 5′-end, Hind III at 3′-end) was amplified by PCR with the plasmid vector as a template, synthetic DNA primers containing an additional restriction enzyme recognition site, and KOD+ DNA Polymerase. This amplified cDNA was digested with Eco RI and Hind III and ligated into expression vector pcDNA3.1(−) (Invitrogen) digested with Eco RI and Hind III by a Rapid DNA Ligation kit (Roche Diagonostics). E. coli competent cells (Invitrogen, DH5α) were transformed with the ligated expression vector and grown in ampicillin-containing LB medium. Human SGLT1 expression vector was purified from the ampicillin-resistant clone in a standard manner.
3) Establishment of Cell Lines Stably Expressing Human SGLT1 or Human SGLT2
The human SGLT1 expression vector or the human SGLT2 expression vector was digested with the restriction enzyme Pvu I and transfected into CHO-Kl cells with FuGENE (Roche Diagonostics). After the transfection, the cells were cultured at 37° C. in the presence of 5% CO2 for about 3 weeks in DMEM medium (Gibco) containing penicillin (50 U/mL, SIGMA), streptomycin (50 mg/L, SIGMA), geneticin (200 mg/L, Nacalai Tesque, Inc., Japan) and 20% fetal bovine serum to obtain geneticin-resistant clones. Among these clones, clones stably expressing human SGLT1 or human SGLT2 were selected by the evaluating the sodium-dependent uptake activity of sugar (methyl-α-D-glucopyranoside).
4) Evaluation of Inhibitory Activity Against methyl-α-D-glucopyranoside uptake
Cell lines stably expressing human SGLT1 or human SGLT2 CHO were seeded in 96-well culture plates at a density of 30000 to 40000 cells/well and cultured for 4 to 6 days. The medium in these plates was removed and replaced by 150 μL/well pretreatment buffer (i.e., a buffer containing 140 mM choline chloride, 2 mM potassium chloride, 1 mM calcium chloride, 1 mM magnesium chloride, 10 mM 2-[4-(2-hydroxyethyl)-1-piperazinyl]ethanesulfonic acid and tris(hydroxymethyl)aminomethane, pH 7.4), and the plates were incubated at 37° C. for 20 minutes. The pretreatment buffer in the plates was removed, replaced by 50 μL/well fresh pretreatment buffer, and the plates were incubated at 37° C. for 20 minutes. Methyl-α-D-(U—^14C)glucopyranoside (6.3 mL, Amersham Pharmacia Biotech, 200 mCi/L) was added to and mixed with 100 mL buffer (i.e., a buffer containing 140 mM sodium chloride, 2 mM potassium chloride, 1 mM calcium chloride, 1 mM magnesium chloride, 1 mM methyl-α-D-glucopyranoside, 10 mM [4-(2-hydroxyethyl)-1-piperazinyl]ethanesulfonic acid and tris(hydroxymethyl)aminomethane, pH 7.4), which was used as uptake buffer. Test compounds were dissolved into uptake buffer and these test compound solutions were used for evaluating inhibitory activity. Uptake buffer without a test compound was used as a control solution. Moreover, for use in measuring baseline uptake in the absence of sodium, sodium-free solution was prepared in the same manner to contain 140 mM choline chloride instead of sodium chloride. […]

Row | Compound | IC50
1 | CCOc1ccc(Cc2cc3c(cc2Cl)CO[C@]32O[C@H](CO)[C@@H](O)[C@H](O)[C@H]2O)cc1 [Example 5, (1S,3′R,4′S,5′S,6′R)-5-chloro-6-[(4-ethoxyphenyl)methyl]-3′,4′,5′,6′-tetrahydro-6′-(hydroxymethyl)-spiro[isobenzofuran-1(3H),2′-[2H]pyran]-3′,4′,5′-triol] | 425 nM
2 | OC[C@H]1O[C@]2(OCc3cc(Cl)c(Cc4ccc5ccccc5c4)cc32)[C@H](O)[C@@H](O)[C@@H]1O [Example 7, (1S,3′R,4′S,5′S,6′R)-5-chloro-3′,4′,5′,6′-tetrahydro-6′-(hydroxymethyl)-6-(2-naphthylmethyl)-spiro[isobenzofuran-1(3H),2′-[2H]pyran]-3′,4′,5′-triol] | 381 nM
3 | CC(C)c1ccc(Cc2cc3c(cc2Cl)CO[C@]32O[C@H](CO)[C@@H](O)[C@H](O)[C@H]2O)cc1 [Example 15, (1S,3′R,4′S,5′S,6′R)-5-chloro-3′,4′,5′,6′-tetrahydro-6′-(hydroxymethyl)-6-[(4-isopropylphenyl)methyl]-spiro[isobenzofuran-1(3H),2′-[2H]pyran]-3′,4′,5′-triol] | 1010 nM
4 | Cc1cc2c(cc1Cc1ccc(C(C)C)cc1)[C@]1(OC2)O[C@H](CO)[C@@H](O)[C@H](O)[C@H]1O [Example 21, (1S,3′R,4′S,5′S,6′R)-3′,4′,5′,6′-tetrahydro-6′-(hydroxymethyl)-6-[(4-isopropylphenyl)methyl]-5-methyl-spiro[isobenzofuran-1(3H),2′-[2H]pyran]-3′,4′,5′-triol] | 682 nM

Second part, the compound after the results:

Row | IC50 | Compound
5 | 132 nM | CCc1ccc(Cc2cc3c(cc2C)CO[C@]32O[C@H](CO)[C@@H](O)[C@H](O)[C@H]2O)cc1 [Comparative Compound 1, 1,1-anhydro-1-C-[5-(4-ethylphenyl)methyl-2-(hydroxymethyl)-4-methylphenyl]-β-glucopyranose, reference compound]
6 | 201 nM | CCc1ccc(Cc2cc3c(cc2Cl)CO[C@]32O[C@H](CO)[C@@H](O)[C@H](O)[C@H]2O)cc1 [Example 1, (1S,3′R,4′S,5′S,6′R)-5-chloro-6-[(4-ethylphenyl)methyl]-3′,4′,5′,6′-tetrahydro-6′-(hydroxymethyl)-spiro[isobenzofuran-1(3H),2′-[2H]pyran]-3′,4′,5′-triol]
7 | 355 nM | OC[C@H]1O[C@]2(OCc3cc(Cl)c(Cc4ccc(CCF)cc4)cc32)[C@H](O)[C@@H](O)[C@@H]1O [Example 8, (1S,3′R,4′S,5′S,6′R)-5-chloro-6-[(4-(2-fluoroethyl)phenyl)methyl]-3′,4′,5′,6′-tetrahydro-6′-(hydroxymethyl)-spiro[isobenzofuran-1(3H),2′-[2H]pyran]-3′,4′,5′-triol]
8 | 1360 nM | CCCc1ccc(Cc2cc3c(cc2Cl)CO[C@]32O[C@H](CO)[C@@H](O)[C@H](O)[C@H]2O)cc1 [Example 9, (1S,3′R,4′S,5′S,6′R)-5-chloro-3′,4′,5′,6′-tetrahydro-6′-(hydroxymethyl)-6-[(4-propylphenyl)methyl]-spiro[isobenzofuran-1(3H),2′-[2H]pyran]-3′,4′,5′-triol]
